Source: ChEMBL document CHEMBL4689842, “EUbOPEN Chemogenomics Library wave 1” (2021)

Experiments:
Type in all cases: toxicity, cell-based
HEK-293T = experiment: Incucyte cell viability with HEK293T; details: human, 10 µM, compound concentration 10 uM
U2OS = experiment: Incucyte cell viability with U2OS; details: human, 10 µM, compound concentration 10 uM
Fibroblast = experiment: Incucyte cell viability with human fibroblast; details: 10 µM, compound concentration 10 uM
[1] = 0 h, replicate number 1, timepoint 0 hours
[2] = 6 h, replicate number 1, timepoint 6 hours
[3] = 12 h, replicate number 1, timepoint 12 hours
[4] = 18 h, replicate number 1, timepoint 18 hours
[5] = 18 h, replicate number 2, timepoint 18 hours
[6] = 24 h, replicate number 1, timepoint 24 hours
[7] = 6 h, replicate number 2, timepoint 6 hours
[8] = 12 h, replicate number 2, timepoint 12 hours
[9] = 24 h, replicate number 2, timepoint 24 hours
[10] = 0 h, replicate number 2, timepoint 0 hours
Further: filed as whole numbers so only -1 and 0 and 1 occur.

Row | Compound | Growth Rate (HEK-293T; [1]) | Growth Rate (HEK-293T; [2]) | Growth Rate (HEK-293T; [3]) | Growth Rate (HEK-293T; [4]) | Growth Rate (HEK-293T; [6]) | Growth Rate (U2OS; [1]) | Growth Rate (U2OS; [2]) | Growth Rate (U2OS; [3]) | Growth Rate (U2OS; [4]) | Growth Rate (U2OS; [5]) | Growth Rate (U2OS; [6]) | Growth Rate (Fibroblast; [10]) | Growth Rate (Fibroblast; [2]) | Growth Rate (Fibroblast; [7]) | Growth Rate (Fibroblast; [3]) | Growth Rate (Fibroblast; [4]) | Growth Rate (Fibroblast; [6]) | Growth Rate (Fibroblast; [9]) | Growth Rate (Fibroblast; [1]) | Growth Rate (Fibroblast; [8]) | further results
1 | COc1cc(C#N)ccc1S(=O)(=O)Nc1ccc2c(c1)cc(C)c(=O)n2C | 1 | 0 | 0 | 0 | 0 | 0 | 0 | 0 | 0 | 1 | 0 | 0 | 1 | 0 | 0 | 0 | 1 | 0 | – | – | Growth Rate (HEK-293T; [5]): 1; Growth Rate (U2OS; [7]): 1; Growth Rate (U2OS; [8]): 1; Growth Rate (U2OS; [9]): 1
2 | CCCOc1ccn2c(C(C)=O)cc(-c3cccc(OC)c3)c2c1 | 0 | – | – | – | – | 0 | 0 | 1 | 1 | – | 1 | – | – | 0 | – | – | 1 | – | 0 | 1 | Growth Rate (HEK-293T; [9]): 1; Growth Rate (Fibroblast; [5]): 0
3 | CCc1cc(Nc2nccc(-c3c(-c4ccc(OC)c(C(=O)Nc5c(F)cccc5F)c4)nc4ccccn34)n2)c(OC)cc1N1CCC(N2CCN(S(C)(=O)=O)CC2)CC1 | 1 | 0 | 0 | 0 | 0 | – | 1 | 1 | 1 | 0 | 1 | – | 1 | 0 | 1 | 1 | 1 | 0 | 1 | 0 | Growth Rate (HEK-293T; [10]): 0; Growth Rate (HEK-293T; [8]): 1; Growth Rate (HEK-293T; [9]): 1; Growth Rate (Fibroblast; [5]): 0
4 | Cl.O=C(Cc1ccc(Cl)c(Cl)c1)N1CCCC[C@H]1CN1CCCC1 | – | 0 | 0 | 0 | 0 | 0 | – | 1 | 1 | – | 1 | 1 | – | – | – | – | – | – | 0 | – | Growth Rate (HEK-293T; [10]): 0; Growth Rate (HEK-293T; [5]): 1; Growth Rate (U2OS; [7]): 1
5 | CCN(Cc1ccc(Cl)cc1)c1ncc(C(=O)NCCCN2CCCC2=O)c(NC2CCCC2)n1 | 0 | – | – | – | – | – | 1 | 1 | 1 | – | 1 | 0 | 1 | 0 | 1 | 1 | 1 | – | – | 0 | Growth Rate (U2OS; [10]): 0
6 | CCCCN(Cc1ccccc1)C(=O)c1ccc(S(=O)(=O)Nc2ccccc2)cc1 | 0 | 1 | – | – | – | – | 1 | 1 | 1 | 0 | 1 | 1 | – | 0 | 1 | 1 | 0 | 1 | 0 | 0 | Growth Rate (HEK-293T; [7]): 0; Growth Rate (HEK-293T; [8]): 1; Growth Rate (HEK-293T; [9]): 1; Growth Rate (U2OS; [9]): 0; Growth Rate (Fibroblast; [5]): 0
